Measured values taken from PubChem BioAssay (NCI).
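How tested: cells in 96-well plates exposed to compound for 48 hours at five concentrations. TGI is the concentration that stops growth completely.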

Assays:
Test in all cases: NCI-60 cell line screen, 48 h
UO-31 renal = system: UO-31 renal
SF-539 CNS = system: SF-539 CNS
A549 NSCLC = system: A549 NSCLC
OVCAR-5 ovarian = system: OVCAR-5 ovarian
M14 melanoma = system: M14 melanoma
A498 renal = system: A498 renal
NCI-H23 lung = system: NCI-H23 lung
U251 CNS = system: U251 CNS
ACHN renal = system: ACHN renal
IGROV1 ovarian = system: IGROV1 ovarian
SNB-19 CNS = system: SNB-19 CNS
OVCAR-8 ovarian = system: OVCAR-8 ovarian
NCI/ADR-RES ovarian = system: NCI/ADR-RES ovarian
OVCAR-4 ovarian = system: OVCAR-4 ovarian
SK-OV-3 ovarian = system: SK-OV-3 ovarian
BT-549 breast = system: BT-549 breast
HS 578T breast = system: HS 578T breast
COLO 205 colon = system: COLO 205 colon
LOX IMVI melanoma = system: LOX IMVI melanoma
UACC-257 melanoma = system: UACC-257 melanoma

Compound | TGI (UO-31 renal) | TGI (SF-539 CNS) | TGI (A549 NSCLC) | TGI (OVCAR-5 ovarian) | TGI (M14 melanoma) | TGI (A498 renal) | TGI (NCI-H23 lung) | TGI (U251 CNS) | TGI (ACHN renal) | TGI (IGROV1 ovarian) | TGI (SNB-19 CNS) | TGI (OVCAR-8 ovarian) | TGI (NCI/ADR-RES ovarian) | TGI (OVCAR-4 ovarian) | TGI (SK-OV-3 ovarian) | TGI (BT-549 breast) | TGI (HS 578T breast) | TGI (COLO 205 colon) | TGI (LOX IMVI melanoma) | TGI (UACC-257 melanoma)
c1ccc(-c2cc(-c3cccs3)c(-c3cccs3)o2)cc1 | > 100 µM | > 100 µM | > 100 µM | > 100 µM | > 100 µM | > 100 µM | > 100 µM | > 100 µM | > 100 µM | > 100 µM | > 100 µM | > 100 µM | > 100 µM | > 100 µM | > 100 µM | > 100 µM | > 100 µM | > 100 µM | > 100 µM | > 100 µM
COc1ccc2cc(C(=O)NCCCNC(=O)c3ccc4cc(OC)ccc4c3)ccc2c1 | > 100 µM | 7.99 µM | > 100 µM | > 100 µM | > 100 µM | > 100 µM | > 100 µM | > 85.4 µM | > 100 µM | > 100 µM | 30.6 µM | > 66.3 µM | > 100 µM | > 100 µM | > 65 µM | > 100 µM | > 100 µM | > 100 µM | > 100 µM | > 100 µM
CCOC(=O)Cn1c(=O)c2cc(-c3ccccc3)cc3c(Cl)nc4c(OC)c(OC)cc1c4c32 | 43.8 µM | > 100 µM | > 100 µM | > 100 µM | 32.9 µM | 59.6 µM | 36.2 µM | > 100 µM | > 65.5 µM | 27.5 µM | 55 µM | 44.4 µM | 56.5 µM | > 77.1 µM | > 100 µM | 38.3 µM | > 27.7 µM | > 100 µM | 26.4 µM | 38.9 µM
C=C(C(=O)OC)c1cc2ccccc2n1S(=O)(=O)c1ccccc1 | 9.41 µM | 3.66 µM | 31.9 µM | 21.7 µM | 9.55 µM | 5.69 µM | 11.5 µM | 5.12 µM | 5.89 µM | 4.21 µM | 34 µM | 8.42 µM | 18.7 µM | 11.3 µM | 26 µM | 5.12 µM | 18.8 µM | 3.82 µM | 8.21 µM | 18.7 µM
CCOC(=O)C(C(=O)OCC)=C1NC2(c3ccccc3Nc3ccc(C)cc32)C(C(=O)OC)S1 (stereo not given) | > 100 µM | > 100 µM | > 100 µM | > 100 µM | > 100 µM | > 100 µM | > 100 µM | > 100 µM | > 100 µM | > 100 µM | > 100 µM | > 100 µM | > 100 µM | > 100 µM | > 100 µM | > 100 µM | 69.2 µM | 57.9 µM | > 100 µM | > 100 µM
CC12CCC(C(Nc3ccccn3)C1=O)C2(C)C (stereo not given) | > 100 µM | > 100 µM | > 100 µM | > 100 µM | > 100 µM | > 100 µM | > 100 µM | > 100 µM | > 100 µM | > 100 µM | > 100 µM | > 100 µM | > 100 µM | > 100 µM | > 100 µM | > 100 µM | > 100 µM | > 100 µM | > 100 µM | > 100 µM
Nc1ccc(Oc2ccc(C34CC5CC6C3CC3CC4C(C5)C6(c4ccc(Oc5ccc(N)c(O)c5)cc4)C3)cc2)cc1O | 11.2 µM | 0.652 µM | 12.9 µM | > 39.5 µM | 8.71 µM | 20.4 µM | 31.2 µM | 13.6 µM | 14.3 µM | 22.6 µM | 14.7 µM | > 46.7 µM | > 92.8 µM | 22.2 µM | 21.7 µM | 20.9 µM | 80.5 µM | 2.85 µM | > 34.9 µM | 34.7 µM
CC(=O)Oc1ccc(/C=C/C(=O)O[C@H]2CCCC[C@@H]2OC(=O)/C=C/c2ccc(OC(C)=O)c(OC(C)=O)c2)cc1OC(C)=O | 20.6 µM | > 100 µM | > 100 µM | 28.4 µM | 25.6 µM | 38.2 µM | 27 µM | > 100 µM | 33.4 µM | 64.9 µM | 27.6 µM | 61.7 µM | > 100 µM | > 100 µM | 27.4 µM | 36.9 µM | > 100 µM | 46.6 µM | 15.4 µM | 52.6 µM
S=C(Nc1ccccn1)Nc1ccccc1Cl | > 100 µM | > 100 µM | > 100 µM | > 100 µM | > 100 µM | > 100 µM | > 100 µM | > 100 µM | > 100 µM | > 67 µM | > 31.6 µM | > 100 µM | > 100 µM | > 100 µM | > 100 µM | > 100 µM | > 52.2 µM | > 100 µM | > 100 µM | > 100 µM
COc1cc2c(cc1OCCCC(=O)Nc1cc(C(=O)NCCCN(C)C)n(C)n1)N=CC1CCCN1C2=O (stereo not given) | 24.3 µM | 22.1 µM | > 41.6 µM | > 26.9 µM | > 27.6 µM | 12.4 µM | > 26.2 µM | > 20.7 µM | 12.6 µM | > 23.5 µM | > 37.4 µM | > 24 µM | > 74.4 µM | 14.1 µM | > 62.3 µM | 29.7 µM | > 100 µM | > 23 µM | > 21.2 µM | 19.2 µM
